This note sets out measurements from patent publication US11013696B2, “Lipids and lipid compositions for the delivery of active agents” (Novartis AG, priority 2013, dated 2021).

The first data set can be described thus: Percent encapsulation of mRNA in lipid nanoparticles (Quant-iT Ribogreen). The format is physicochemical. Particulars: Table 2; leptin mRNA in LNP with the cationic lipid. On the procedure:
All equipment and disposable supplies are certified free of RNase activity by the manufacturer or rendered RNase free by use of the RNaseZap reagent (LifeTechnologies). mRNA is encapsulated at a cationic lipid amine to mRNA phosphate (N:P) molar ratio of 4:1. Lipids (cationic lipid, DSPC, cholesterol and lipidated PEG or stealth lipid) are dissolved in ethanol. The molar ratios are 40:10:38:2, respectively. The mixture is sonicated briefly, then gently agitated for 5 minutes and then maintained at 37° C. until use. mRNA is exchanged into citrate buffer pH 5.8-6.0 by use of Amicon Ultra-15 centrifugal concentrators, and the final concentration is adjusted to 0.5 mg/ml and held at 37° C. until use. An equal volume of lipids in ethanol, mRNA in citrate buffer, and citrate buffer alone are drawn into disposable syringes. Tubing leading from syringes containing lipids and mRNA are attached to the T junction, and tubing leading from the syringe containing citrate buffer alone is paired with the tubing exiting the T-junction over a collection vessel containing a stir bar on an active stir plate. Syringes are placed in a syringe pump set to expel contents at a flow rate of 1 ml per minute.
The pump is activated, and the collected mRNA in lipid nanoparticles is transferred to SnakeSkin dialysis tubing (10,000 MWCO, Thermo Scientific). Material is dialyzed against RNAse- and pyrogen-free 1× phosphate buffered saline overnight at 4° C.
Percent encapsulation of mRNA in lipid nanoparticles is determined using the Quant-iT Ribogreen RNA Assay kit (Life Technologies). The LNP-mRNA suspension is assayed in buffer (mRNA outside the particle), and buffer plus Triton X-100 detergent (total mRNA). The difference calculated is the mRNA inside the particle. Prepare a 1000 ng/mL stock from the RNA provided in the kit and use this to generate a standard curve (0 ng/ml, 15.63-1000 ng/ml) in TE and TE+0.75% Triton X-100. Prepare LNP-mRNA samples in TE buffer and TE buffer +0.75% Triton X-100 with appropriate dilution so that reading is in the range of standard curve (400-2,000 fold). In a 384-well plate (Costar non-treated #3573) add 0.04 ml of standard (in duplicate) or sample (in triplicate) per well. Dilute Ribogreen reagent 240-fold in TE buffer and add 0.06 ml per well. Mix contents of wells and measure fluorescence (excitation=480 nm, emission=520 nm). Subtract background values (no RNA) from standard and test sample values and determine the concentrations of RNA in the samples using the standard curves. Determine the percent encapsulation of the sample by dividing the difference in concentrations between sample+triton and sample in buffer alone by the sample+triton concentration.
Take `CCCCC/C=C\C/C=C\CCCCCCCCC(CCOC(=O)CCCCC(OCCCCCCCC)OCCCCCCCC)OC(=O)OCCCN(CC)CC` (centres unmarked) [Example 127, (12Z,15Z)-3-(((3-(diethylamino)propoxy)carbonyl)oxy)henicosa-12,15-dien-1-yl 6,6-bis(octyloxy)hexanoate]: the “% encapsulation mRNA Leptin” value is recorded as 96.7%.
As for `CCCCCCCCOC(CCCCC(=O)OCCC(CCCOC(=O)CCCCCCC)OC(=O)OCCCN(CC)CC)OCCCCCCCC` (centres unmarked) [Example 128, 6-((6,6-bis(octyloxy)hexanoyl)oxy)-4-(((3-(diethylamino)propoxy)carbonyl)oxy)hexyl octanoate], the “% encapsulation mRNA Leptin” value was 86.2%.
The same measure, in the same setting: to `CCCCCCCCCCCCC(CCCOC(=O)CCCCC(COC(=O)CCCCCCC)COC(=O)CCCCCCC)OC(=O)OCCCN(CC)CC` (centres unmarked) [Example 138, 2-(10-dodecyl-3-ethyl-8,15-dioxo-7,9,14-trioxa-3-azanonadecan-19-yl)propane-1,3-diyl dioctanoate] belongs 92.9%; to `CCCCCCCCCCCCC(CCOC(=O)CCCCC(OCCCCCCCC)OCCCCCCCC)OC(=O)C1(C)CCN(C)C1` (centres unmarked) [Example 120, 1-((6,6-bis(octyloxy)hexanoyl)oxy) pentadecan-3-yl 1,3-dimethylpyrrolidine-3-carboxylate], 96.1%; to `CCCCCCCCCCCCC(CCOC(=O)CCCCC(OCCC(CC)CC)OCCC(CC)CC)OC(=O)OCCCN(C)C` (centres unmarked) [Example 116, 3-(((3-(dimethylamino)propoxy)carbonyl)oxy)pentadecyl 6,6-bis((3-ethylpentyl)oxy)hexanoate], 93.3%.
Take `CC/C=C\C/C=C\C/C=C\CCCCCCCC(=O)OCC(COC(=O)CCCCCCC/C=C\C/C=C\C/C=C\CC)OC(=O)CCC(CCCCCCCCCCCC)OC(=O)OCCCN(C)C` (centres unmarked) [Example 82, (9Z,9′Z,12Z,12′Z,15Z,15′Z)-2-((4-(((3-(dimethylamino)propoxy)carbonyl)oxy)hexadecanoyl)oxy)propane-1,3-diyl bis(octadeca-9,12,15-trienoate)]: the “% encapsulation mRNA Leptin” value turned out to be 81.9%.
The same measure, in the same setting: the value for `CCCCCCCCCCCCC(CCOC(=O)OCCCN(CC)CC)OC(=O)CCCCC(COC(=O)CCCCCCC)COC(=O)CCCCCCC` (centres unmarked) [Example 142, 2-(12-dodecyl-3-ethyl-8,14-dioxo-7,9,13-trioxa-3-azaoctadecan-18-yl)propane-1,3-diyl dioctanoate] was 92.5%; that for `CCCCCCCCCCCCC(CCOC(=O)CCCCC(OCCCCCCCC)OCCCCCCCC)OC(=O)C1(C)CCN(C)CC1` (centres unmarked) [Example 122, 1-((6,6-bis(octyloxy)hexanoyl)oxy) pentadecan-3-yl 1,4-dimethylpiperidine-4-carboxylate] was 97.5%; that for `CCCCCCCCCCCCC(CCOC(=O)CCCCC(OCCCCCCCC)OCCCCCCCC)OC(=O)OCCN(CC)CC` (centres unmarked) [Example 113, 3-(((2-(diethylamino)ethoxy)carbonyl)oxy)pentadecyl 6,6-bis(octyloxy)hexanoate] was 37.5%.
The same measure, in the same setting: the value for `CCCCCCCCCCCCCC(=O)OCC(COC(=O)CCCCCCCCCCCCC)OC(=O)CCC(CCCCCCCCCCCC)OC(=O)OCCCN(C)CC` (centres unmarked) [Example 86, 2-((4-(((3-(ethyl(methyl)amino)propoxy)carbonyl)oxy)hexadecanoyl)oxy)propane-1,3-diyl ditetradecanoate] was 68.5%.
As for `CCCCCCCCCCCCC(CCCOC(=O)CCCCC(COC(=O)CCCCCCC)COC(=O)CCCCCCC)OC(=O)C1(C)CCN(C)C1` (centres unmarked) [Example 132, 2-(5-((4-((1,3-dimethylpyrrolidine-3-carbonyl)oxy)hexadecyl)oxy)-5-oxopentyl)propane-1,3-diyl dioctanoate], the “% encapsulation mRNA Leptin” value was found to be 95.5%.
The same measure, in the same setting: the value for `CCCCCCCCCCCCC(CCCOC(=O)CCCCC(COC(=O)CCCCCCC)COC(=O)CCCCCCC)OC(=O)OC1CCN(C)CC1` (centres unmarked) [Example 137, 2-(5-((4-((((1-methylpiperidin-4-yl)oxy)carbonyl)oxy)hexadecyl)oxy)-5-oxopentyl)propane-1,3-diyl dioctanoate] was 98.1%; that for `CCCCCCCCCCCCC(CCOC(=O)CCCCC(OCCCCCCCC)OCCCCCCCC)OC(=O)CCC1CCN(C)CC1` (centres unmarked) [Example 121, 3-((3-(1-methylpiperidin-4-yl)propanoyl)oxy)pentadecyl 6,6-bis(octyloxy)hexanoate] was 71.2%.
On the same count and under the same terms, the value for `CCCCCCCCCCCCC(CCCOC(=O)CCCCC(COC(=O)CCCCCCC)COC(=O)CCCCCCC)OC(=O)O[C@@H]1CCN(C)C1` (stereo partly drawn) [Example 135, 2-(5-((4-(((((R)-1-methylpyrrolidin-3-yl)oxy)carbonyl)oxy)hexadecyl)oxy)-5-oxopentyl)propane-1,3-diyl dioctanoate] was 96.2%.

The next data set can be described thus: siRNA encapsulation in lipid nanoparticles (SYBR Gold). It is filed as physicochemical. Particulars: Table 2; FVII siRNA in LNP with the cationic lipid. On the procedure: The lipid nanoparticles (LNPs) were formed by mixing equal volumes of lipids dissolved in alcohol with siRNA dissolved in a citrate buffer by an impinging jet process. The lipid solution contains a cationic lipid compound of the invention, a helper lipid (cholesterol), an optional neutral lipid (DSPC) and a PEG (PEG) lipid at a concentration of 8-16 mg/mL with a target of 12 mg/mL in an alcohol. The siRNA to total lipid ratio is approximately 0.05 (wt/wt). Where a LNP formulation contains four lipid components, the molar ratios of the lipids ranges from 20 to 70 mole percent for the cationic lipid with a target of 40-60, the mole percent of helper lipid ranges from 20 to 70 with a target of 30 to 50, the mole percent of neutral lipid ranges from 0-30, the mole percent of PEG lipid has a range from 1 to 6 with a target of 2 to 5. The concentration of siRNA solution ranges from 0.7 to 1.0 mg/mL with a target of 0.8 to 0.9 mg/mL in a sodium citrate: sodium chloride buffer pH 4-6, with a target of 4.5-5.5. The LNPs are formed by mixing equal volumes of lipid solution in ethanol with siRNA dissolved in a citrate buffer by an impinging jet process through a mixing device with ID ranging from 0.25 to 2.0 mm at a flow rate from 10 to 640 mL/min. The mixed LNP solution is held at room temperature for 0-24 hrs prior to a dilution step. The solution is then concentrated and diafiltered with suitable buffer by ultrafiltration or dialysis process using membranes with a MW cutoff from 30 to 500 KD. The final product is sterile filtered and stored at 4° C.
The lipid nanoparticles (LNPs) were formed by mixing equal volumes of lipids dissolved in alcohol with siRNA dissolved in a citrate buffer by an impinging jet process. The lipid solution contains a cationic lipid compound of the invention, a helper lipid (cholesterol), an optional neutral lipid (DSPC) and a stealth lipid (5010, S024, S027, or S031) at a concentration of 8-16 mg/mL with a target of 12 mg/mL in an alcohol. The siRNA to total lipid ratio is approximately 0.05 (wt/wt). Where a LNP formulation contains four lipid components, the molar ratios of the lipids ranges from 20 to 70 mole percent for the cationic lipid with a target of 40-60, the mole percent of helper lipid ranges from 20 to 70 with a target of 30 to 50, the mole percent of neutral lipid ranges from 0-30, the mole percent of PEG lipid has a range from 1 to 6 with a target of 2 to 5. The concentration of siRNA solution ranges from 0.7 to 1.0 mg/mL with a target of 0.8 to 0.9 mg/mL in a sodium citrate: sodium chloride buffer pH 4-6, with a target of 4.5-5.5. The LNPs are formed by mixing equal volumes of lipid solution in ethanol with siRNA dissolved in a citrate buffer by an impinging jet process through a mixing device with ID ranging from 0.25 to 2.0 mm at a flow rate from 10 to 640 mL/min. The mixed LNP solution is held at room temperature for 0-24 hrs prior to a dilution step. The solution is then concentrated and diafiltered with suitable buffer by ultrafiltration process using membranes with a MW cutoff from 30 to 500 KD. The final product is sterile filtered and stored at 4° C.
SYBR Gold flourescence reagent is used for the determination of siRNA encapsulation in the DLP's. DLP's with and without triton x-100 are used to determine the free siRNA and total siRNA amounts. DLP's samples with and without triton X-100 were excited at 485 nm and flourescence emission is measured at 530 nm. Encapsulation efficiency is calculated based on the following formula: Encapsulation efficiency:[([…])/(total siRNA concentration)]×100% Encapsulation Data
Take `CCCCC/C=C\C/C=C\CCCCCCCCC(COCCOC(=O)CCCCCCC/C=C\C/C=C\CCCCC)OC(=O)CCN(C)C` (centres unmarked) [Example 59, (9Z,12Z)-2-(((11Z,14Z)-2-((3-(dimethylamino)propanoyl)oxy)icosa-11,14-dien-1-yl)oxy)ethyl octadeca-9,12-dienoate]: the “% encapsulation siRNA FVII” value stood at 90.2%.
Same read-out and setting: the value for `CCCCCCCCCCCCCC(=O)OCC(COC(=O)CCCCCCCCCCCCC)OC(=O)CCC(CCCCCCCCCCCC)OC(=O)OCCCN(C)C` (centres unmarked) [Example 85, 2-((4-(((3-(dimethylamino)propoxy)carbonyl)oxy)hexadecanoyl)oxy)propane-1,3-diyl ditetradecanoate] was 85.7%; that for `CCCCCCCCCCCCC(CCOC(=O)CC(CCCCCCCC)CCCCCCCC)OC(=O)OCCCN(C)C` (centres unmarked) [Example 24, 3-(((3-(dimethylamino)propoxy)carbonyl)oxy)pentadecyl 3-octylundecanoate] was 86.8%.
